Our source for the EC50 values is patent US8309545B2, “Benzofuran potassium channel blockers and uses thereof” (Bionomics Limited, priority 2006, dated 2012).

Structures are written as SMILES.

The target in this assay is T1, human Kv1.3 ion channel (Homo sapiens, UniProt P22001).
T1 construct: Human Jurkat cells (which endogenously express hKv1.3) were used in place of rat L929 cells; endogenous in cells; host or cells: Human Jurkat cells
As to the kind of experiment: Inhibition of Kv1.3 currents, planar patch clamp in Jurkat cells. It is filed as cell-based. The following applies: Human Jurkat cells (endogenous hKv1.3), averaged dose response data from 3 or more cells. The method, then: Potency of compounds to inhibit the human Kv1.3 ion channel were determined as follows:
EC50 values for inhibition of Kv1.3 currents were determined by the method according to Schmitz et al (2005) Molecular Pharmacology 68, 1254-1270 with the following differences: • 1. Human Jurkat cells (which endogenously express hKv1.3) were used in place of rat L929 cells. • 2. All electrophysiology was performed using planar patch clamp (Port-A-Patch, Nanion Technologies Gmbh, Munich) in contrast to conventional patch clamp. • 3. EC50 values shown were determined from averaged dose response data obtained from 3 or more cells.

T1 sequence (P22001 whole entry): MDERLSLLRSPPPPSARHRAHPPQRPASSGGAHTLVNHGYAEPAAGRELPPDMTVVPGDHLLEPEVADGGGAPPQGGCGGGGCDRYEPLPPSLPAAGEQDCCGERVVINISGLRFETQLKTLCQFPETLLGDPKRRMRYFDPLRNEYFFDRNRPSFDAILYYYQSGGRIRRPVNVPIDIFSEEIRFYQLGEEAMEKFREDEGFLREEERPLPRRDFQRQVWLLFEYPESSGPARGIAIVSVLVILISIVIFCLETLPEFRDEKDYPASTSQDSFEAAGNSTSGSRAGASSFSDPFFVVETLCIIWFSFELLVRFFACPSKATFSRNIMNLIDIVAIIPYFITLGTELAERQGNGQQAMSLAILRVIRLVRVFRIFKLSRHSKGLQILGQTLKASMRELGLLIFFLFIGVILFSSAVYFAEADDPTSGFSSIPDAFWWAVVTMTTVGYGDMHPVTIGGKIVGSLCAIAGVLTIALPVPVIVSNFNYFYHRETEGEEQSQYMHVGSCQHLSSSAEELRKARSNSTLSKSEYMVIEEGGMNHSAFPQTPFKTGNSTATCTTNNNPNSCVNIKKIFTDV

Consider `CC(=O)c1c(OCCN2CCOCC2)c(OCCC(C)(C)c2ccccc2)c2occc2c1C` (racemic) [Example 46b, rac-1-[4-Methyl-7-(3-methyl-3-phenyl-butoxy)-6-(2-morpholin-4-yl-ethoxy)-benzofuran-5-yl]ethanone], for which the concentration for a half-maximal effect (EC50) stood at 198 nM.
`Cc1cc(=O)c2c(C)c3ccoc3c(OC[C@H]3C[C@@H]3c3ccccc3)c2o1` (racemic) [Example 58a, rac-4,7-Dimethyl-9-(1S,2S-2-phenyl-cyclopropylmethoxy)-furo[3,2-g]chromen-5-one] yielded an EC50 of 165 nM.
Take `CC(=O)c1c(O)c(OC[C@H]2C[C@@H]2c2ccccc2)c2occc2c1C` (racemic) [Example 58b, rac-1-[6-Hydroxy-4-methyl-7-(1S,2S-2-phenyl-cyclopropylmethoxy)-benzofuran-5-yl]-ethanone]: the response was half-maximal at 512 nM (EC50).
In turn, `Cc1cc(=O)c2c(C)c3ccoc3c(OC[C@H]3C[C@H]3c3ccccc3)c2o1` (racemic) [Example 59a, rac-4,7-Dimethyl-9-(1S,2R-2-phenyl-cyclopropylmethoxy)-furo[3,2-g]chromen-5-one] yielded a concentration for a half-maximal effect (EC50) of 215 nM.
Take `COc1c2occc2c(C)c2c(=O)cc(C)oc12` [4 a)]: the EC50 is 790 nM.
Turning to `COc1c(OCCCc2ccccc2)c(C(C)=O)c(C)c2ccoc12` [4 c)], the EC50 was 225 nM.
As for `COc1c(C(C)=O)c(OCCOc2ccccc2)c(OC)c2occc12` [5 b)], the EC50 worked out at 880 nM.
For the molecule `COc1c(C(C)=O)c(OCCCOc2ccccc2)c(OC)c2occc12` [6 b)], the EC50 turned out to be 720 nM.
Consider `COc1c(C(C)=O)c(OCCCc2ccccc2)c(CN(C)C)c2occc12` [13 b)], for which the EC50 was 480 nM.
The molecule `COc1c(C(C)=O)c(OCCCCOc2ccccc2)c(OCCN2CCOCC2)c2occc12` [14 c)] had a half-maximal effective concentration (EC50) of 910 nM.
For `COc1c(C(C)=O)c(OCCN(C)C)c(OCCCc2ccccc2)c2occc12` [15 b)], the EC50 was 160 nM.
For `Cc1cc(=O)c2c(C)c3ccoc3c(OCCCc3ccccc3)c2o1` [18 a)] the value was 114 nM.
`CC(=O)c1c(OCCN(C)C)c(OCCCc2ccccc2)c2occc2c1C` [18 c)] displayed a 50% effective concentration (EC50) of 420 nM. This EC50 lies about 3.7-fold higher than the previous one.
`CC(=O)c1c(OCCn2ccnc2)c(OCCCc2ccccc2)c2occc2c1C` [20 b)] came in with a half-maximal effective concentration (EC50) of 68 nM.
`CC(=O)c1c(OCCn2nnc(N)n2)c(OCCCc2ccccc2)c2occc2c1C` [21 a)] had an EC50 of 23 nM.
The molecule `CC(=O)c1c(OCCn2nnnc2N)c(OCCCc2ccccc2)c2occc2c1C` [21 b)] yielded an EC50 of 160 nM. This EC50 lies about 7-fold higher than the previous one.
As to `CC(=O)c1cc2ccoc2c(OCCCc2ccccc2)c1OCCN1CCOCC1` [22 c)], the concentration giving a half-maximal response (EC50) stood at 610 nM.
As to `CC(=O)c1c(OCCN2CCOCC2)cc2occc2c1OCCCCOc1ccccc1` [23 d)], the EC50 was found to be 174 nM.
Regarding `CC(=O)c1c(OCCCCN2CCOCC2)c(OCCCc2ccccc2)c2occc2c1C` [28 b)], a half-maximal response (EC50) required 640 nM.
For `COc1c(C(C)=O)c(OCCCc2ccccc2)c(OC)c2occc12` [Example 1, 5-Acetyl-4,7-dimethoxy-6-(3-(phenyl)propoxy)benzofuran] the value was 290 nM.
`COc1c(C(C)=O)c(OCCCCOc2ccccc2)c(OC)c2occc12` [Example 2]: the concentration giving a half-maximal response (EC50) was found to be 420 nM.
Molecule `CC(=O)c1cc2ccoc2cc1OCCCc1ccccc1` [Example 3, 5-Acetyl-6-(3-phenylpropoxy)benzofuran] showed an EC50 of 184 nM.
For `COc1c(C(C)=O)c(OCCSc2ccccc2)c(OC)c2occc12` [Example 7, 5-Acetyl-4,7-dimethoxy-6-(2-(thiophenoxy)ethoxy)benzofuran], the EC50 amounted to 680 nM.
The molecule `COc1c(C(C)=O)c(OCCCSc2ccccc2)c(OC)c2occc12` [Example 8, 5-Acetyl-4,7-dimethoxy-6-(3-(phenylthio)propoxy)benzofuran] registered an EC50 of 750 nM.
Molecule `COc1c(C(C)=O)c(OCCS(=O)(=O)c2ccccc2)c(OC)c2occc12` [Example 9, 5-Acetyl-4,7-dimethoxy-6-(2-(benzenesulfonyl)ethoxy)benzofuran] gave a concentration giving a half-maximal response (EC50) of 2420 nM.
